The subject of assay [1] is cardiac fibroblasts. Put plainly: Western analysis of myosin light chain phosphorylation. It is filed as cell-based, rat. Particulars: co-incubation with inhibitor, 30 minutes. The protocol:
(§1) Protein concentrations of tissue and cell lysates were determined by the BCA method (Smith et al., 1985, Anal Biochem 150: 76-85). Proteins were separated by 8-12% SDS-PAGE and transferred to PVDF membrane (Roche, Indianapolis, Ind.) for 1 hour at 300 mA for small proteins or for 2 hours at 500 mA for proteins greater than 100 kDa. Membranes were blocked with 5% non-fat skim milk in tris-buffered saline containing 0.2% Tween 20 (TBST). Proteins were visualized with ECL Plus (Amersham) after probing with primary and secondary antibodies. Band intensity was quantified using a CCD camera imaging densitometer (GS670, Bio-Rad Laboratories (Canada) Ltd. Mississauga, Ontario).
The infarct zone is repopulated by interstitial fibroblasts that infiltrate the scar after MI. […] Similar results were obtained when using the Costar Transwell® system (data not shown). To determine how the chemotactic response is transduced, we used specific inhibitors of intracellular signaling pathways. […] This effect could be blunted by co-incubation with AG490 (FIG. 22). […] Since activation of myosin motors is required for effective cell migration, and CT-1 induced migration could be inhibited by co-incubation with a myosin light chain kinase inhibitor, we sought to determine the effect of CT-1 on the phosphorylation status of myosin light chain. Myosin light chain regulates the ATPase activity of myosin heavy chain, and thus overall contractile activity. […] Myosin light chain phosphorylation could be prevented by co-incubation with ML-7 or W7 but not AG490 or PP2 (FIG. 25b).

In assay [2] the test system is cardiac fibroblasts. The experiment in a line: Protein synthesis assay (3H-leucine incorporation). It is filed as cell-based, rat. Particulars: co-incubation with inhibitor, CT-1 10 ng/mL. The protocol:
Protein synthesis was determined using the methods of Wolf and Neilson (Wolf and Neilson, 1990, Am J Physiol 259: 768-777). 2.5×10^4 cells (counted with a hemacytometer) were loaded into each well of 24-well plates, allowed to attach overnight, then rendered quiescent in serum free DMEM/F12 for 24 hours. Cells were stimulated with CT-1 for an additional 24 hours in the presence of 2 μCi/mL ^3H-leucine with or without inhibitors of signaling pathways. The culture media was aspirated, cells rinsed twice with phosphate buffered saline and proteins precipitated by two incubations with 10% TCA at room temperature. The precipitated protein was solubilized in 300 μl lysis buffer containing 0.5 M NaOH and 1% Triton X-100 at room temperature for 15 minutes. The lysate was transferred to scintillation vials, and beta emission was determined with 3 ml Ecolume scintillation fluid (ICN Pharmaceuticals) and a scintillation counter (LS6500, Beckman Coulter, Fullerton, Calif.).

The subject of assay [3] is cardiac fibroblasts. Put plainly: Western analysis of phosphorylation of translational regulatory proteins. It is filed as cell-based, rat. Conditions: co-incubation with inhibitor. The protocol: as §1
To determine the effect of CT-1 on protein synthesis in cardiac fibroblasts we measured incorporation of ^3H-labeled leucine. […] Since the activity of translational regulatory proteins is modified by phosphorylation, we used phospho-specific antibodies to determine if CT-1 directly influenced the activity of these regulatory proteins.
We then determined the effect of pharmacologic inhibitors on the activation of this signaling cascade.

A further assay concerns angiotensinogen mRNA. Conditions: cited from earlier work.
Assay [4] deals with cardiac fibroblasts. Put plainly: Wounded monolayer model, cortactin immunostaining. Particulars: co-incubation with inhibitor. It counts as cell-based, rat. The protocol:
Cardiac fibroblasts were seeded onto coverslips in 6-well dishes and allowed to proliferate. Once the cells were near confluency, they were serum deprived for 24 hours. A scrape was made down the middle of the coverslip with the blunt end of a 1 ml syringe and the media was changed again. Cells were further incubated in the presence or absence of CT-1 and inhibitors at specified concentrations for specified times. The cells were then subjected to immunofluorescence staining as described herein.

The next assay has as its system other kinases. Particulars: cited from earlier work.

Bounds are passed on as bounds.

As for `O=S(=O)(c1cccc2c(I)cccc12)N1CCCNCC1` [ML-7], in the assay on cardiac fibroblasts [1], the “effect on CT-1 induced myosin light chain phosphorylation” value was “prevented”.
Turning to `N#C/C(=C\c1ccc(O)c(O)c1)C(=O)NCc1ccccc1` [AG490, Tyrphostin B42], the “effect on CT-1 induced myosin light chain phosphorylation” value with cardiac fibroblasts [1] is given as “not”. Moreover, the “effect on CT-1 induced protein synthesis (3H-leucine uptake)” value (shortened to “effect on CT-1 induced protein synthesis”) with cardiac fibroblasts [2] is “suppressed”. For the same molecule, in the assay on cardiac fibroblasts [3], the “effect on CT-1 induced activation of ERK 1/2, p38 MAPK, mTOR, p70 S6 kinase S421/T424, or S6 ribosomal protein” value is “did not significantly affect”; the “effect on CT-1 induced phosphorylation of Akt at both sites, p70 S6 kinase T389, Mnk1, eIF4E and 4E-BP1” value is given as “suppressed”. Moreover, the “angiotensinogen mRNA production in response to CT-1 stimulation” value in the assay with angiotensinogen mRNA is on record as “attenuate”. For the same molecule, in the assay on cardiac fibroblasts [4], the “effect on CT-1 induced cortactin localization at the leading edge” value was “blunted”.
In the case of `CC(C)(C)n1nc(-c2ccc(Cl)cc2)c2c(N)ncnc21` [PP2], the “effect on CT-1 induced myosin light chain phosphorylation” value in the assay on cardiac fibroblasts [1] is “not”.
As to `NCCCCCCNS(=O)(=O)c1cccc2c(Cl)cccc12` [W7], the “effect on CT-1 induced myosin light chain phosphorylation” value in the assay with cardiac fibroblasts [1] is on record as “prevented”.
In the case of `COc1cccc(-c2cc(=O)c3ccccc3o2)c1N` [PD98059], the “effect on CT-1 induced protein synthesis” value in the assay on cardiac fibroblasts [2] is given as “suppressed”. In addition, in the assay on cardiac fibroblasts [3], the “effect on CT-1 induced phosphorylation of Akt, mTOR, p70 S6 kinase, 4EB-P1 and S6 ribosomal protein” value is given as “lesser effect”; the “effect on basal and CT-1 induced phosphorylation of ERK 1/2, Mnk1, and eIF4E” value was “greatest inhibitory effect”. For the same molecule, the “concentration at which selectivity is maintained” value in the assay with other kinases is not above 50 µM.
For `C[S+]([O-])c1ccc(-c2nc(-c3ccncc3)c(-c3ccc(F)cc3)[nH]2)cc1` (stereo not drawn) [SB203580], the “effect on CT-1 induced protein synthesis” value in the assay on cardiac fibroblasts [2] is given as “suppressed”. The “effect on CT-1 induced phosphorylation of Akt, p70 S6 kinase and Mnk1” value in the assay with cardiac fibroblasts [3] is listed as “suppressed”.
